“Also recorded” adds a separate entry of the source.
How the values were obtained:
[1] = tested on: restless leg syndrome (RLS) patients; conditions: prior art clinical studies, cited from earlier work; for therapeutic effectiveness in RLS: levodopa perorally in the evening, 100 to 600 mg
[2] = tested on: restless leg syndrome (RLS) patients; assay: Oral therapy of RLS patients with terguride (patient histories); format: in vivo, human
Description: The invention is explained in more detail below based on examples in the form of patient histories.

[3] = cited from earlier work; for plasma half-life: in vivo
[4] = tested on: sleeping pattern, REM phases; assay: Effect of oral terguride on sleeping pattern / sleep profile; format: in vivo, human; conditions: 0.5 mg p.o. up to 50 mg
Description: A dosage of 0.5-2.5 mg is preferred. In the therapy of RLS, terguride in […] dosages apparently acts as a partial agonist, its acting especially on RLS symptoms as a complete agonist, but has little or no effect on the other intact dopaminergic control circuits that control vomiting, orthostasis and the sleep profile. Thus, there is no need to specially change the dosage with a view to side effects. At the same time, however, the desired effect begins very quickly, which is very useful if RLS symptoms occur in the evening, and leads to the patient being unable to fall asleep. Finally, if a longer duration of action is desirable, the dosage of 0.5, 1 mg or even higher can be increased without disturbing the sleep profile.

NC(=O)N1c2ccccc2C=Cc2ccccc21 [carbamazepine]
therapeutic effectiveness in RLS [1]: especially effective in the control of painful RLS symptoms
success of previous RLS treatments ([2]; Patient 3): only moderately successful

CCCN(CCC)CCc1cccc2c1CC(=O)N2 [Ropinirole]
tolerance / side effects in RLS therapy [1]: fewer side effects
therapeutic effectiveness in RLS [1]: less effective

CCCN1C[C@H](CSC)C[C@@H]2c3cccc4[nH]cc(c34)C[C@H]21 [pergolide]
course of RLS after switch from terguride ([2]; Patient 2, later switched to pergolide): no deterioration
plasma half-life [3]: more than 27 hours

C=CCN1C[C@H](C(=O)N(CCCN(C)C)C(=O)NCC)C[C@@H]2c3cccc4[nH]cc(c34)C[C@H]21 [cabergoline]
plasma half-life [3]: more than 40 hours

N[C@@H](Cc1ccc(O)c(O)c1)C(=O)O [Levodopa]
tolerance / side effects in RLS therapy [1]: generally well tolerated
therapeutic effectiveness in RLS [1]: brief effectiveness

CCN(CC)C(=O)N[C@H]1C[C@@H]2c3cccc4[nH]cc(c34)C[C@H]2N(C)C1 [terguride]
Epworth scale ([2]; Patient 1, daily dosage 1.5 mg orally): 12
side effects ([2]; Patient 1, daily dosage 1.5 mg orally, long-term therapy): no side effects
improvement of RLS ([2]; Patient 2, familial RLS, 1 mg orally): very distinct improvement
side effects ([2]; Patient 2, 1 mg / 0.5 mg orally): no side effects
effectiveness in RLS ([2]; Patient 2, further therapy with 0.5 mg): partial effectiveness
course of RLS in withdrawal trial ([2]; Patient 2, withdrawal of terguride): immediate deterioration
success of RLS treatment ([2]; Patient 3 (person two), 1 mg orally for 3 months): very good success
side effects ([2]; Patient 3, 1 mg orally for 3 months): no side effects
effectiveness on renewed use after stopping when RLS symptoms recurred ([2]; compared with first administration): same effectiveness
tolerance in treatment of RLS ([2]; general statement): very good tolerance
effectiveness in oral therapy of RLS ([2]; oral, general statement): exceptionally effective; also recorded: great effectiveness
adverse effect on REM phases [4]: no adverse effect
adverse effects on the sleeping pattern [4]: no adverse effects whatsoever

NCC1(CC(=O)O)CCCCC1 [gabapentin]
therapeutic effectiveness in RLS [1]: especially effective in the control of painful RLS symptoms

CCCN[C@H]1CCc2nc(N)sc2C1 [Pramipexol]
therapeutic effectiveness in RLS [1]: almost complete suppression of symptoms

Cc1ccc(-c2nc3ccc(C)cn3c2CC(=O)N(C)C)cc1 [zolpidem]
success of previous RLS treatments ([2]; Patient 3): only moderately successful

OC(CCN1CCCCC1)(c1ccccc1)C1CC2C=CC1C2 (stereo not shown) [biperiden]
effect of previous treatment on RLS ([2]; Patient 2, previous treatment): little effect

CC(C)C[C@H]1C(=O)N2CCC[C@H]2[C@]2(O)O[C@](NC(=O)[C@@H]3C=C4c5cccc6[nH]c(Br)c(c56)C[C@H]4N(C)C3)(C(C)C)C(=O)N12 [bromocriptine]
share of perorally administered dose reaching systemic blood circulation ([3]; peroral): 6%

[Mg+2] [magnesium]
success of previous RLS treatments ([2]; Patient 3): only moderately successful
